Data: patent US8003082B2, “Photostable organic sunscreen composition” (Merck Patent GmbH, priority 2003, dated 2011)

Columns and labels:
[1] = Photostabilization of Avobenzone in formulation, thin films between glass slides under UV-B light, loss in absorption; type: physicochemical
Method: Photostabilization of Avobenzone (in formulation) was performed using thin films (about 50-100μ thick, transmission signals in the non-absorbing regions must be above 85%) of formulated materials placed between two glass slides and then irradiated under UV-B light (Q-U-V Accelerated Weather Tester, The Q Panel Company). Photodegradation of Avobenzone was calculated from the relative loss in absorption of Avobenzone in formulated products before and after irradiation. 1 hour irradiation under UV-B light is equal to about 1.4 MED (minimal erythemal dose). A Beckman Coulter DU-640 spectrophotometer at a scan speed of 120 nm/min was used for this study. All spectra were recorded from 200 to 600 nm.

[2] = Diphenylpicryl Hydrazide (DPPH) antioxidant test; type: biochemical; settings: DPPH test method
Method: Di-2-ethylhexyl-3,5-dimethoxy-4-hydroxy-benzalmalonate is a yellow viscous liquid having a λmax at 332 nm (MeOH, εmax 18,600 cm^−1 mol^−1) or 337 nm (EtOH:H2O/70:30, εmax 19,840 cm^−1 mol^−1).
A DPPH concentrate (2.5×) of 25 mg of 1,1-Diphenyl-2-Picyrl-Hydrazyl ACS#1898-66-4 (Sigma #D-9132, lot 99H3601) dissolved in 250 mL ethanol (USP), is prepared fresh on the measurement date. A DPPH working solution is then prepared by diluting 100 mL of this concentrate to a final volume of 250 mL (100 μM/mL). A blank 13×100 mm borosilicate glass screw top tube of ethanol (USP) is used to zero the spectrometer (Milton Roy, Spectronic 20+) at 517 nm and a control tube of DPPH working solution is measured under identical conditions, and taken as 0% activity. […] After 20 minutes, the absorbance of each sample is read at 517 nm.
The percent reducing activity (% RA) is calculated using the following equation: […]
Where A(0) is the absorbance value of the DPPH working solution at 517 nm zeroed against an ethanol blank and A(20) is the absorbance at 517 nm, 20 minutes after combining the antioxidant with the DPPH working solution.
The concentration of antioxidant (mg/ml) in the final assay mixture is calculated based on the dilution of respective aliquots of each compound in the final assay volume and % RA tabulated and plotted as percent activity at each concentration in the dilution series: […]

[3] = Solubility of Avobenzone in Oxynex ST + OMC on storage; type: physicochemical; design: key: Ppt = precipitate
[4] = Solubility of Avobenzone in Oxynex ST + HMS on storage; type: physicochemical; design: key: Ppt = precipitate
Method: The solubility of Avobenzone was tested in various ratios of Oxynex® ST and HMS.

[5] = In vitro critical wavelength and SPF; settings: Avobenzone (2%) in the presence of HMS (6%) and Oxynex ST (2%)
Method: The target SPF range can be achieved with a combination of both inorganic and organic chromophoric compounds. SPF is determined by techniques well known in the art, on human skin as described in the Federal Register, Aug. 25, 1978, Vol. 43, No. 166, pages 38259-38269 (Sunscreen Drug Products for Over-The-Counter Human Use, Food and Drug Administration). SPF values can also be approximated using in-vitro models as described, for example, in J. Soc. Cosmet. Chem. 44:127-133 (May/June 1989).

## CCCCC(CC)COC(=O)c1ccc2cc(C(=O)OCC(CC)CCCC)ccc2c1 (stereo not drawn) [TQ, Di-2-ethylhexyl-napthylate]
[1]; combined with Homosalate, ratio (w/w) 2:6:2
  stabilization of Avobenzone: failed to stabilize
[1]; photostabilizer used alone
  effect on the photostabilization of Avobenzone: practically no effect

## CCCCC(CC)COC(=O)C(=Cc1cc(OC)c(O)c(OC)c1)C(=O)OCC(CC)CCCC (stereo not drawn) [Oxynex ST, Di-(2-Ethylhexyl)-3,5-dimethoxy-4-hydroxy benzylidene malonate]
[2]
  antioxidant activity (IC50): 85 ± 8 µg/mL

## COc1ccc(C(=O)CC(=O)c2ccc(C(C)(C)C)cc2)cc1 [Avobenzone, 4-(tert-butyl)-4′-methoxydibenzoylmethane]
[3]; Avobenzone/Oxynex ST/OMC 20/20/60, storage 4° C., 1 week
  Solubility of Avobenzone in the Oxynex ® ST Photostabilizer + OMC: Clear
[3]; Avobenzone/Oxynex ST/OMC 20/20/60, storage 4° C., 2 weeks
  Solubility of Avobenzone in the Oxynex ® ST Photostabilizer + OMC: Crystal?
[3]; Avobenzone/Oxynex ST/OMC 20/20/60, storage 4° C., 48 hr
  Solubility of Avobenzone in the Oxynex ® ST Photostabilizer + OMC: Clear
[3]; Avobenzone/Oxynex ST/OMC 20/20/60, storage RT, 1 week
  Solubility of Avobenzone in the Oxynex ® ST Photostabilizer + OMC: Clear
[3]; Avobenzone/Oxynex ST/OMC 20/20/60, storage RT, 2 weeks
  Solubility of Avobenzone in the Oxynex ® ST Photostabilizer + OMC: Clear
[3]; Avobenzone/Oxynex ST/OMC 20/20/60, storage RT, 48 hr
  Solubility of Avobenzone in the Oxynex ® ST Photostabilizer + OMC: Clear
[3]; Avobenzone/Oxynex ST/OMC 25/25/50, storage 4° C., 1 week
  Solubility of Avobenzone in the Oxynex ® ST Photostabilizer + OMC: Ppt
[3]; Avobenzone/Oxynex ST/OMC 25/25/50, storage 4° C., 2 weeks
  Solubility of Avobenzone in the Oxynex ® ST Photostabilizer + OMC: Ppt
[3]; Avobenzone/Oxynex ST/OMC 25/25/50, storage 4° C., 48 hr
  Solubility of Avobenzone in the Oxynex ® ST Photostabilizer + OMC: Clear
[3]; Avobenzone/Oxynex ST/OMC 25/25/50, storage RT, 1 week
  Solubility of Avobenzone in the Oxynex ® ST Photostabilizer + OMC: Clear
[3]; Avobenzone/Oxynex ST/OMC 25/25/50, storage RT, 2 weeks
  Solubility of Avobenzone in the Oxynex ® ST Photostabilizer + OMC: Crystal?
[3]; Avobenzone/Oxynex ST/OMC 25/25/50, storage RT, 48 hr
  Solubility of Avobenzone in the Oxynex ® ST Photostabilizer + OMC: Clear
[3]; Avobenzone/Oxynex ST/OMC 30/20/50, storage 4° C., 48 hr
  Solubility of Avobenzone in the Oxynex ® ST Photostabilizer + OMC: Few
[3]; Avobenzone/Oxynex ST/OMC 30/20/50, storage RT, 48 hr
  Solubility of Avobenzone in the Oxynex ® ST Photostabilizer + OMC: Few
[4]; Avobenzone/Oxynex ST/HMS 15/15/70, storage 4° C., 1 week
  Solubility of Avobenzone in the Oxynex ® ST Photostabilizer + HMS: Clear
[4]; Avobenzone/Oxynex ST/HMS 15/15/70, storage 4° C., 2 weeks
  Solubility of Avobenzone in the Oxynex ® ST Photostabilizer + HMS: Crystal?
[4]; Avobenzone/Oxynex ST/HMS 15/15/70, storage 4° C., 3 weeks
  Solubility of Avobenzone in the Oxynex ® ST Photostabilizer + HMS: Crystal?
[4]; Avobenzone/Oxynex ST/HMS 15/15/70, storage 4° C., 6 weeks
  Solubility of Avobenzone in the Oxynex ® ST Photostabilizer + HMS: Ppt
[4]; Avobenzone/Oxynex ST/HMS 15/15/70, storage 4° C., 24 hr
  Solubility of Avobenzone in the Oxynex ® ST Photostabilizer + HMS: Clear
[4]; Avobenzone/Oxynex ST/HMS 15/15/70, storage RT, 1 week
  Solubility of Avobenzone in the Oxynex ® ST Photostabilizer + HMS: Clear
[4]; Avobenzone/Oxynex ST/HMS 15/15/70, storage RT, 2 weeks
  Solubility of Avobenzone in the Oxynex ® ST Photostabilizer + HMS: Clear
[4]; Avobenzone/Oxynex ST/HMS 15/15/70, storage RT, 3 weeks
  Solubility of Avobenzone in the Oxynex ® ST Photostabilizer + HMS: Clear
[4]; Avobenzone/Oxynex ST/HMS 15/15/70, storage RT, 6 weeks
  Solubility of Avobenzone in the Oxynex ® ST Photostabilizer + HMS: Clear
[4]; Avobenzone/Oxynex ST/HMS 15/15/70, storage RT, 24 hr
  Solubility of Avobenzone in the Oxynex ® ST Photostabilizer + HMS: Clear
[4]; Avobenzone/Oxynex ST/HMS 20/20/60, storage 4° C., 1 week
  Solubility of Avobenzone in the Oxynex ® ST Photostabilizer + HMS: Clear
[4]; Avobenzone/Oxynex ST/HMS 20/20/60, storage 4° C., 2 weeks
  Solubility of Avobenzone in the Oxynex ® ST Photostabilizer + HMS: Crystal?
[4]; Avobenzone/Oxynex ST/HMS 20/20/60, storage 4° C., 3 weeks
  Solubility of Avobenzone in the Oxynex ® ST Photostabilizer + HMS: Crystal?
[4]; Avobenzone/Oxynex ST/HMS 20/20/60, storage 4° C., 6 weeks
  Solubility of Avobenzone in the Oxynex ® ST Photostabilizer + HMS: Ppt
[4]; Avobenzone/Oxynex ST/HMS 20/20/60, storage 4° C., 24 hr
  Solubility of Avobenzone in the Oxynex ® ST Photostabilizer + HMS: Clear
[4]; Avobenzone/Oxynex ST/HMS 20/20/60, storage RT, 1 week
  Solubility of Avobenzone in the Oxynex ® ST Photostabilizer + HMS: Clear
[4]; Avobenzone/Oxynex ST/HMS 20/20/60, storage RT, 2 weeks
  Solubility of Avobenzone in the Oxynex ® ST Photostabilizer + HMS: Clear
[4]; Avobenzone/Oxynex ST/HMS 20/20/60, storage RT, 3 weeks
  Solubility of Avobenzone in the Oxynex ® ST Photostabilizer + HMS: Clear
[4]; Avobenzone/Oxynex ST/HMS 20/20/60, storage RT, 6 weeks
  Solubility of Avobenzone in the Oxynex ® ST Photostabilizer + HMS: Clear
[4]; Avobenzone/Oxynex ST/HMS 20/20/60, storage RT, 24 hr
  Solubility of Avobenzone in the Oxynex ® ST Photostabilizer + HMS: Clear
[4]; Avobenzone/Oxynex ST/HMS 25/25/50, storage 4° C., 1 week
  Solubility of Avobenzone in the Oxynex ® ST Photostabilizer + HMS: Ppt
[4]; Avobenzone/Oxynex ST/HMS 25/25/50, storage 4° C., 2 weeks
  Solubility of Avobenzone in the Oxynex ® ST Photostabilizer + HMS: Ppt
[4]; Avobenzone/Oxynex ST/HMS 25/25/50, storage 4° C., 3 weeks
  Solubility of Avobenzone in the Oxynex ® ST Photostabilizer + HMS: Ppt
[4]; Avobenzone/Oxynex ST/HMS 25/25/50, storage 4° C., 6 weeks
  Solubility of Avobenzone in the Oxynex ® ST Photostabilizer + HMS: Ppt
[4]; Avobenzone/Oxynex ST/HMS 25/25/50, storage 4° C., 24 hr
  Solubility of Avobenzone in the Oxynex ® ST Photostabilizer + HMS: Clear
[4]; Avobenzone/Oxynex ST/HMS 25/25/50, storage RT, 1 week
  Solubility of Avobenzone in the Oxynex ® ST Photostabilizer + HMS: Clear
[4]; Avobenzone/Oxynex ST/HMS 25/25/50, storage RT, 2 weeks
  Solubility of Avobenzone in the Oxynex ® ST Photostabilizer + HMS: Crystal?
[4]; Avobenzone/Oxynex ST/HMS 25/25/50, storage RT, 3 weeks
  Solubility of Avobenzone in the Oxynex ® ST Photostabilizer + HMS: Ppt
[4]; Avobenzone/Oxynex ST/HMS 25/25/50, storage RT, 6 weeks
  Solubility of Avobenzone in the Oxynex ® ST Photostabilizer + HMS: Ppt
[4]; Avobenzone/Oxynex ST/HMS 25/25/50, storage RT, 24 hr
  Solubility of Avobenzone in the Oxynex ® ST Photostabilizer + HMS: Clear
[4]; Avobenzone/Oxynex ST/HMS 30/30/40, storage 4° C., 1 week
  Solubility of Avobenzone in the Oxynex ® ST Photostabilizer + HMS: Ppt
[4]; Avobenzone/Oxynex ST/HMS 30/30/40, storage 4° C., 2 weeks
  Solubility of Avobenzone in the Oxynex ® ST Photostabilizer + HMS: Ppt
[4]; Avobenzone/Oxynex ST/HMS 30/30/40, storage 4° C., 3 weeks
  Solubility of Avobenzone in the Oxynex ® ST Photostabilizer + HMS: Ppt
[4]; Avobenzone/Oxynex ST/HMS 30/30/40, storage 4° C., 6 weeks
  Solubility of Avobenzone in the Oxynex ® ST Photostabilizer + HMS: Ppt
[4]; Avobenzone/Oxynex ST/HMS 30/30/40, storage 4° C., 24 hr
  Solubility of Avobenzone in the Oxynex ® ST Photostabilizer + HMS: Clear
[4]; Avobenzone/Oxynex ST/HMS 30/30/40, storage RT, 1 week
  Solubility of Avobenzone in the Oxynex ® ST Photostabilizer + HMS: Ppt
[4]; Avobenzone/Oxynex ST/HMS 30/30/40, storage RT, 2 weeks
  Solubility of Avobenzone in the Oxynex ® ST Photostabilizer + HMS: Ppt
[4]; Avobenzone/Oxynex ST/HMS 30/30/40, storage RT, 3 weeks
  Solubility of Avobenzone in the Oxynex ® ST Photostabilizer + HMS: Ppt
[4]; Avobenzone/Oxynex ST/HMS 30/30/40, storage RT, 6 weeks
  Solubility of Avobenzone in the Oxynex ® ST Photostabilizer + HMS: Ppt
[4]; Avobenzone/Oxynex ST/HMS 30/30/40, storage RT, 24 hr
  Solubility of Avobenzone in the Oxynex ® ST Photostabilizer + HMS: Clear
[5]
  SPF: > 30
  critical wavelength: appropriate
[1]
  Avobenzone stability: 24%
